{
  "source": "patent US20110009335A1",
  "about": "“Anticancer Treatments” (priority 2008, published 2011)",
  "key": {"[1]": {"system": "NCI-H-460 human NSCLC xenograft", "assay": "Aplidine with temsirolimus, NCI-H-460 xenograft in athymic nude mice (Example 5)", "type": "in vivo", "conditions": "for % Inhibition G2: aplidine 0.06 mg/kg/day", "procedure": "Female athymic nude mice (Harlan Sprague Dawley, Madison, Wis.) were utilized for all experiments. Mice were implanted with a cell suspension when mice were 6-8 weeks of age. Animals were housed in ventilated rack caging with food and water ad libitum. The mice were acclimated for at least 5 days prior to tumor implantation.\nThe tumor model used in this study was NCI-H-460, which is a human NSCLC cell line obtained from the ATCC (Manassas, Va.). NCI-H-460 cells were grown in RPMI-1640 medium, 10% FBS, 10 mM Hepes, 1 mM sodium pyruvate, 4.5 g/l glucose, 1.5 g/l sodium bicarbonate and 2 mM L-glutamine. Cells from in vitro passage 11 were implanted SC into study mice: 5×10^6 cells/mouse in 0.2 ml 50% Matrigel/50% medium without antibiotics or serum, using a 23 G needle and 1 cc syringe.\nTumor measurements were determined as disclosed in Example 1. When tumor growth was within an average size range of 110±25 mg (mean±SD), mice were randomized into the treatment and control groups based on tumor weight by using LabCat® In Life module V 8.0 SP1 tumor tracking and measurement software.\nThe treatment of NCI-H-460-tumor-bearing mice was initiated on DPI (Day Post Implantation) 7. Body weights were recorded on treatment days and when tumor sizes were measured. In those days wherein the two drugs were administered the same day, the combination therapy groups were treated by co-administering the two drugs at the same time, with no attempt to sequence the treatments.\n(§1) Aplidine was provided in the form of vials of lyophilized aplidine powder which was reconstituted in Cremophor EL/ethanol/water (CEW) 15/15/70 to a concentration of 0.5 mg/ml. The aplidine solution in CEW was diluted in 0.9% Saline to the dosing formulation concentrations, being the final proportion of CEW of 0.18/0.18/0.84.\n(§2) Temsirolimus was provided in the form of vials containing a non-aqueous, ethanolic, sterile solution of temsirolimus, 25 mg/ml. […] Then, the solution was further diluted in 0.9% Saline to the dosing formulation concentrations.\n(§3) Tumor size measurements were recorded twice weekly from the treatment initiation until the termination of the study. Tumor growth inhibition was assessed comparing the mean tumor weight between the two agents in combination (aplidine and temsirolimus) against temsirolimus mean tumor weight at the different concentrations assayed.\n(§4) Mean, standard deviation and standard error of the mean were determined for tumor volume for all animal groups at all assessments. Student's t test was performed on tumor volumes at each measurement day, including at the end of the study, to determine whether there were any statistically significant differences between combination treatment groups and single monotherapy treatment groups.\nThe definition and criteria for the evaluation of potentiation and the degree of additivity for the combination therapy were the same as those disclose in Example 1."}, "[2]": {"system": "CAKI-1 human renal tumor xenograft", "assay": "Aplidine with temsirolimus, CAKI-1 xenograft in athymic nude mice (Example 4)", "type": "in vivo", "conditions": "for % Inhibition G2: aplidine 0.06 mg/kg/day", "procedure": "Female athymic nude mice (Harlan Sprague Dawley, Madison, Wis.) were utilized for all experiments. Mice were implanted with a cell suspension when mice were 6-8 weeks of age. Animals were housed in ventilated rack caging with food and water ad libitum. The mice were acclimated for at least 5 days prior to tumor implantation. […] The tumor model used in this study was CAKI-1, which was implanted in the animals as disclosed in Example 2.\nTumor measurements were determined as disclosed in Example 1. When tumor growth was within an average size range of 140±34 mg (mean±SD), mice were randomized into the treatment and control groups based on tumor weight by using LabCat® In Life module V 8.0 SP1 tumor tracking and measurement software.\nThe treatment of CAKI-1-tumor-bearing mice was initiated on DPI (Day Post Implantation) 21. Body weights were recorded on treatment days and when tumor sizes were measured. In those days wherein the two drugs were administered the same day, the combination therapy groups were treated by co-administering the two drugs at the same time, with no attempt to sequence the treatments.\nas §1, §2, §3, §4\nThe definition and criteria for the evaluation of potentiation and the degree of additivity for the combination therapy were the same as those disclosed in Example 1."}, "[3]": {"conditions": "G2: aplidine 0.060 mg/kg/day IP"}, "[4]": {"conditions": "temsirolimus 10 and 20 mg/kg/day"}},
  "note": "Starred links: 1 amine or outer side, 2 acyl side, 3 side chain; linkers in the order of their positions; H or OH if unused. Positions of bridges follow the written chain, without caps; N, C: chain ends. Non-standard residues stand in square brackets, D forms with d. Residues, ends and D or L forms follow the SMILES beside them. *: point of attachment. X1 = CC[C@H](C)[C@@H](N[*:1])[C@@H](O)CC(=O)O[C@H](C(=O)[C@H](C)C(=O)[*:2])C(C)C; NMeY = CN[C@@H](Cc1ccc(O)cc1)C(=O)O; dNMeL = CN[C@H](CC(C)C)C(=O)O; Pyruvoyl = CC(=O)C(=O)*",
  "data": [
    {"smiles": "CC[C@H](C)[C@H]1NC(=O)[C@@H](NC(=O)[C@@H](CC(C)C)N(C)C(=O)[C@@H]2CCCN2C(=O)C(C)=O)[C@@H](C)OC(=O)[C@H](Cc2ccc(OC)cc2)N(C)C(=O)[C@@H]2CCCN2C(=O)[C@H](CC(C)C)NC(=O)[C@@H](C)C(=O)[C@H](C(C)C)OC(=O)C[C@@H]1O", "note": "[aplidine, dehydrodidemnin B] (Pyruvoyl-P[dNMeL]T[X1]LP[NMeY](Me); ester 3-C)", "values": [
      {"measurement": "% T/C on day 7", "setting": "[1]; [3]", "result": 101.2, "unit": "%"},
      {"measurement": "% T/C on day 10", "setting": "[1]; [3]", "result": 95.5, "unit": "%"},
      {"measurement": "% T/C on day 13", "setting": "[1]; [3]", "result": 73.2, "unit": "%"},
      {"measurement": "% T/C on day 16", "setting": "[1]; [3]", "result": 77.4, "unit": "%"},
      {"measurement": "% T/C on day 20", "setting": "[1]; [3]", "result": 88.5, "unit": "%"},
      {"measurement": "% T/C on day 23", "setting": "[1]; [3]", "result": 84.3, "unit": "%"},
      {"measurement": "% T/C on day 27", "setting": "[1]; [3]", "result": 86.4, "unit": "%"},
      {"measurement": "% T/C on day 29", "setting": "[1]; [3]", "result": 96.9, "unit": "%"},
      {"measurement": "% T/C on day 31", "setting": "[1]; [3]", "result": 96.0, "unit": "%"},
      {"measurement": "% Inhibition G2", "setting": "[1]; day 7", "result": "−1.2", "unit": "%"},
      {"measurement": "% Inhibition G2", "setting": "[1]; day 10", "result": 4.5, "unit": "%"},
      {"measurement": "% Inhibition G2", "setting": "[1]; day 13", "result": 26.8, "unit": "%"},
      {"measurement": "% Inhibition G2", "setting": "[1]; day 16", "result": 22.6, "unit": "%"},
      {"measurement": "% Inhibition G2", "setting": "[1]; day 20", "result": 11.5, "unit": "%"},
      {"measurement": "% Inhibition G2", "setting": "[1]; day 23", "result": 15.7, "unit": "%"},
      {"measurement": "% Inhibition G2", "setting": "[1]; day 27", "result": 13.6, "unit": "%"},
      {"measurement": "% Inhibition G2", "setting": "[1]; day 29", "result": 3.1, "unit": "%"},
      {"measurement": "% Inhibition G2", "setting": "[1]; day 31", "result": 4.0, "unit": "%"},
      {"measurement": "antitumor activity as single agent (monotherapy)", "setting": "[1]; [4]", "result": "inactive"},
      {"measurement": "% T/C on day 21", "setting": "[2]; [3]", "result": 98.2, "unit": "%"},
      {"measurement": "% T/C on day 24", "setting": "[2]; [3]", "result": 94.6, "unit": "%"},
      {"measurement": "% T/C on day 27", "setting": "[2]; [3]", "result": 75.6, "unit": "%"},
      {"measurement": "% T/C on day 30", "setting": "[2]; [3]", "result": 66.0, "unit": "%"},
      {"measurement": "% T/C on day 34", "setting": "[2]; [3]", "result": 81.0, "unit": "%"},
      {"measurement": "% T/C on day 38", "setting": "[2]; [3]", "result": 91.1, "unit": "%"},
      {"measurement": "% T/C on day 42", "setting": "[2]; [3]", "result": 84.1, "unit": "%"},
      {"measurement": "% T/C on day 45", "setting": "[2]; [3]", "result": 80.7, "unit": "%"},
      {"measurement": "% T/C on day 48", "setting": "[2]; [3]", "result": 80.1, "unit": "%"},
      {"measurement": "% T/C on day 56", "setting": "[2]; [3]", "result": 89.8, "unit": "%"},
      {"measurement": "% T/C on day 58", "setting": "[2]; [3]", "result": 89.9, "unit": "%"},
      {"measurement": "% Inhibition G2", "setting": "[2]; day 21", "result": 1.8, "unit": "%"},
      {"measurement": "% Inhibition G2", "setting": "[2]; day 24", "result": 5.4, "unit": "%"},
      {"measurement": "% Inhibition G2", "setting": "[2]; day 27", "result": 24.4, "unit": "%"},
      {"measurement": "% Inhibition G2", "setting": "[2]; day 30", "result": 34.0, "unit": "%"},
      {"measurement": "% Inhibition G2", "setting": "[2]; day 34", "result": 19.0, "unit": "%"},
      {"measurement": "% Inhibition G2", "setting": "[2]; day 38", "result": 8.9, "unit": "%"},
      {"measurement": "% Inhibition G2", "setting": "[2]; day 42", "result": 15.9, "unit": "%"},
      {"measurement": "% Inhibition G2", "setting": "[2]; day 45", "result": 19.3, "unit": "%"},
      {"measurement": "% Inhibition G2", "setting": "[2]; day 48", "result": 19.9, "unit": "%"},
      {"measurement": "% Inhibition G2", "setting": "[2]; day 56", "result": 10.2, "unit": "%"},
      {"measurement": "% Inhibition G2", "setting": "[2]; day 58", "result": 10.1, "unit": "%"},
      {"measurement": "antitumor activity as single agent (monotherapy)", "setting": "[2]; [4]", "result": "inactive"}
    ]}
  ]
}
